In publication PMC6129362, “MT1-MMP as a PET Imaging Biomarker for Pancreas Cancer Management” (Contrast Media & Molecular Imaging, 2018):
Where a SMILES comes first, the peptide text is derived from it. The star is where a group is joined. DOTA = O=C(O)CN1CCN(CC(=O)O)CCN(CC(=O)*)CCN(CC(=O)O)CC1

Assays:
[1] = PET/CT imaging in CAPAN-2-tumour-bearing mice; type: in vivo; details: female, athymic nude-Foxn1nu (nu/nu), mouse, iv, total radioactivity, CAPAN-2 xenograft mice, i.v., PET 90 min after injection, mean ± SD (n=33 for -1, n=17 for -2), read-out: Tumour uptake quantified by PET imaging
Description: For the cell line-derived model, 1 × 10^6 CAPAN-2 cells were injected subcutaneously into the flanks of female athymic nude-Foxn1nu (nu/nu) mice (Harlan Laboratories). Tumours were allowed to develop until palpable prior to PET imaging. Mice were sacrificed when the tumour mass reached a maximum size of 1500 mm^3 or tumour ulceration was observed, or mice were symptomatic from their tumours which included signs of lethargy, poor grooming, weight loss, and hunching.
PET imaging was performed with a small-animal Argus PET-CT scanner (SEDECAL, Madrid, Spain). PET studies (energy window 250–700 KeV and 30 min static acquisition) and CT studies (voltage 45 kV, current 150 μA, 8 shots, 360 projections, and standard resolution) were performed either at 90 min or at various time points after injection of ^68Ga-DOTA-AF7p or ^89Zr-DFO-LEM2/15, respectively, in mice anesthetized by inhalation of 2–2.5% isoflurane. PET image reconstruction was accomplished using a 2D-OSEM (ordered subset expectation maximization) algorithm (16 subsets and two iterations), with random and scatter correction. […] Tumour-to-blood and tumour-to-background ratios were calculated from %ID/g values in ROIs for the whole tumour, heart (a measure of the blood pool), and brain (for background measurements). Images were analysed with the image analysis software ITK-SNAP [26] […]

[2] = PET/CT imaging in heterotopic (subcutaneous) patient-derived xenograft mice; type: in vivo, mouse; details: female, athymic nude-Foxn1nu (nu/nu), mouse, total radioactivity, heterotopic PDX mice
Excerpt: (§1) PDX models used in this work were established as described by Rubio-Viqueira et al. and Hidalgo et al. using four- to six-week-old female athymic nude-Foxn1nu (nu/nu) mice, purchased from Envigo (Barcelona, Spain). Animals were maintained at the Spanish National Cancer Research Centre (CNIO) Animal Facility (awarded with the AAALAC accreditation). Orthotopic tumours were monitored by ultrasonography, and those implanted into the flanks were allowed to grow to approximately 40 to 200 mm^3 prior to perform PET imaging studies.
(§2) PET imaging was performed with a small-animal Argus PET-CT scanner (SEDECAL, Madrid, Spain). PET studies (energy window 250–700 KeV and 30 min static acquisition) and CT studies (voltage 45 kV, current 150 μA, 8 shots, 360 projections, and standard resolution) were performed either at 90 min or at various time points after injection of ^68Ga-DOTA-AF7p or ^89Zr-DFO-LEM2/15, respectively, in mice anesthetized by inhalation of 2–2.5% isoflurane. PET image reconstruction was accomplished using a 2D-OSEM (ordered subset expectation maximization) algorithm (16 subsets and two iterations), with random and scatter correction. A calibration factor predetermined by scanning a cylindrical phantom containing a known activity of ^68Ga or ^89Zr was used to convert counts per pixel/sec to kBq/cm^3. Manually drawn regions of interest (ROIs) selected from PET images using CT anatomical guidelines were used to determine the mean radiotracer accumulation in units of %ID/g tissue (decay corrected to the time of injection) by dividing the obtained average tracer concentration (kBq/cm^3) in the region by the total ID (injected dose, expressed in kBq). Tumour-to-blood and tumour-to-background ratios were calculated from %ID/g values in ROIs for the whole tumour, heart (a measure of the blood pool), and brain (for background measurements). Images were analysed with the image analysis software ITK-SNAP [26] (http://www.itksnap.org).

[3] = system: subcutaneous PDAC patient-derived xenograft; assay: as above; type: in vivo, mouse; details: heterotopic PDX mice
Excerpt: as §1, §2

Row | SMILES | tissue uptake at 1.5 h [1] | tissue uptake at 1.5 h ([2]; kidneys, PET, n=17, read-out: Mean accumulation in kidneys) | tissue uptake at 1.5 h ([2]; liver, PET, n=16, read-out: Mean accumulation in liver) | tissue uptake at 1.5 h ([2]; tumour, PET 90 min after injection, start of the PET study, n=8, read-out: Tumour uptake quantified by PET imaging) | tissue uptake at 1.5 h ([2]; tumour, PET 90 min after injection, study day 5, n=8, read-out: Tumour uptake quantified by PET imaging) | tissue uptake at 1.5 h ([2]; tumour, PET 90 min after injection, study day 8, n=6, read-out: Tumour uptake quantified by PET imaging) | tissue uptake at 1.5 h ([2]; tumour, PET 90 min after injection, study day 14, n=10, read-out: Tumour uptake quantified by PET imaging) | Route of excretion (signals in kidneys and bladder on PET) [3]
1 | CC(C)C[C@H](NC(=O)[C@H](Cc1ccccc1)NC(=O)[C@@H](NC(=O)[C@H](CCCCN)NC(=O)[C@@H](NC(=O)[C@H](CC(N)=O)NC(=O)[C@H](Cc1c[nH]cn1)NC(=O)[C@H](CC(C)C)NC(=O)[C@H](Cc1c[nH]cn1)NC(=O)[C@H](CCCCN)NC(=O)[C@H](Cc1c[nH]c2ccccc12)NC(=O)[C@H](Cc1c[nH]cn1)NC(=O)CN1CCN(CC(=O)O)CCN(CC(=O)O)CCN(CC(=O)O)CC1)[C@@H](C)O)[C@@H](C)O)C(=O)O [^68Ga-DOTA-AF7p-1, metal not drawn] ({DOTA}-HWKHLHNTKTFL-OH) | 0.171 ± 0.095 %ID/g | 4.03 ± 1.73 %ID/g | 0.8 ± 0.6 %ID/g | 0.23 ± 0.085 %ID/g | 0.227 ± 0.142 %ID/g | 0.26 ± 0.047 %ID/g | 0.185 ± 0.082 %ID/g | mainly excreted through the renal route
2 | CC(C)C[C@H](NC(=O)[C@H](Cc1ccccc1)NC(=O)[C@@H](NC(=O)[C@H](CCCCN)NC(=O)[C@@H](NC(=O)[C@H](CC(N)=O)NC(=O)[C@H](Cc1c[nH]cn1)NC(=O)[C@H](CC(C)C)NC(=O)[C@H](Cc1c[nH]cn1)NC(=O)[C@H](CCCCNC(=O)CN1CCN(CC(=O)O)CCN(CC(=O)O)CCN(CC(=O)O)CC1)NC(=O)[C@H](Cc1c[nH]c2ccccc12)NC(=O)[C@@H](N)Cc1c[nH]cn1)[C@@H](C)O)[C@@H](C)O)C(=O)O [^68Ga-DOTA-AF7p-2, metal not drawn] (H-HWK(DOTA)HLHNTKTFL-OH) | 0.216 ± 0.095 %ID/g |  |  |  |  |  |  | 
